Measurements: patent US11015169B2, “Culture medium for pluripotent stem cells” (Kyoto University, priority 2014, dated 2021)

Key:
Format in all cases: cell-based
[1] = test system: Human ES cell lines KhES-1; experiment: Fold increase of cells within 6 days without passage
Procedure: (§1) A medium further comprising an NFAT inhibitor (tacrolimus (FK-506) (1007965, produced by Cayman Chemical)), in addition to a GSK3β inhibitor (1-azakenpaullone or kenpaullone) and a DYRK inhibitor (ID-8), was prepared as in Example 1. Using this medium, subculture and cell observation were performed as in Example 1. Separately from this, passage P1 was performed using this medium, as in Example 1, followed by culturing for 6 days without performing passage. Thereafter, the number of the cells was counted in accordance with a standard method, and, based on the counted number of cells, how many times the number of the cells increased within 6 days was calculated.

[2] = test system: Human ES cell lines KhES-1; experiment: Subculture of human ES cells in medium comprising a GSK3β inhibitor and a DYRK inhibitor, cell observation; details: KhES-1, no feeder cells, vitronectin-N-coated dish; for maintenance of the ES cells (stability), among the GSK3β inhibitors: combined with DYRK inhibitor ID-8 500 nM, 1-azakenpaullone 750 nM, kenpaullone 500 nM
Procedure: 25 mL of a solution in which a powder DMEM/F-12 medium (D0547, produced by Sigma-Aldrich) had been diluted two-fold with water, 1.4 mL of 6% sodium hydrogen carbonate solution, 0.75 mL of 1 M HEPES solution, 0.045 mL of 0.23 M ascorbic acid solution, 0.9 ML of ITS (Insulin-Transferrin-Selenium: 1 mg/ml-0.55 mg/ml-0.7 μg/ml) solution (ITS-G 41400-045, produced by Life Technologies), and 16.905 mL of water were mixed to obtain 45 mL of basal medium (340 mOsm, pH 7.2 to 7.5).
A GSK3β inhibitor (1-azakenpaullone (A3734, produced by Sigma-Aldrich), kenpaullone (1094-1, produced by BioVision), CHIR99021 (1386, produced by Axon Medchem), or BIO (B1686, produced by Sigma-Aldrich)), and a DYRK inhibitor (ID-8 (11786, produced by Sigma-Aldrich), harmine (Ser. No. 10/010,324, produced by Cayman Chemical), an indirubin analog 716 (6i) (ACS Medicinal Chemistry Letters, 2013, vol. 4, no. 1, pp. 22-26), INDY (405273, produced by Merck Millipore Corporation), L41 (MR-00023, produced by AdipoGen), or TG003 (4336, produced by R&D Systems)) were each added singly or in combination to the basal medium to thereby obtain a medium. The following are final concentrations in the medium.
Human ES cell lines KhES-1 (provided by Riken BioResource Center) were subcultured in the above medium. More specific details are below. The following culture was performed in the absence of feeder cells in a dish (vitronectin-N-coated dish) in which coating treatment was performed overnight using 1 μg of vitronectin-N (A14700 produced by Life Technologies) per 1 cm^2 of the culture dish.
ES cell colonies cultured in accordance with a standard method using a general-purpose medium for human ES cells (20% knockout serum replacement (10828-028, produced by Life Technology), 4 ng/ml of FGF2 (100-18B, produced by Peprotech)/DMEM/F-12 medium (11330-032, produced by Life Technology)) were rinsed once with PBS. A dispase solution (10 mg/ml dispase (Ser. No. 17/105,041, produced by Life Technologies)/DMEM/F-12) was added thereto so as to cover the cells, followed by being left to stand for 5 minutes. […]

[3] = test system: Human ES cell lines KhES-1; experiment: Subculture and cell observation in medium further comprising an NFAT inhibitor; details: tacrolimus added in addition to azakenpaullone and ID-8, FIG. 3A
Procedure: as §1

SMILES: O=C1Cc2c([nH]c3ccc(Br)cc23)-c2ncccc2N1 [1-azakenpaullone]
- cell growth (fold increase of the cells), comparison of GSK3β inhibitors ([1]; GSK3β inhibitor with ID-8 and tacrolimus, FIG. 3B): accelerates the cell growth more than kenpaullone
- maintenance of the ES cells (stability), among the GSK3β inhibitors [2]: most stable manner

SMILES: COc1ccc(-n2c(C)c([N+](=O)[O-])c3ccc(O)cc32)cc1 [ID-8]
- maintenance of the ES cells (stability), among the DYRK inhibitors ([2]; combined with 1-azakenpaullone 750 nM, ID-8 500 nM): most stable manner

SMILES: O=C1Cc2c([nH]c3ccc(Br)cc23)-c2ccccc2N1 [kenpaullone]
- maintenance of the ES cells (stability), among the GSK3β inhibitors [2]: most stable manner

SMILES: C=CC[C@@H]1/C=C(\C)C[C@H](C)C[C@H](OC)[C@H]2O[C@@](O)(C(=O)C(=O)N3CCCC[C@H]3C(=O)O[C@H](/C(C)=C/[C@@H]3CC[C@@H](O)[C@H](OC)C3)[C@H](C)[C@@H](O)CC1=O)[C@H](C)C[C@@H]2OC [tacrolimus]
- maintenance of ES cells in an undifferentiated state [3]: ES cells are maintained in an undifferentiated state
- cell growth (fold increase of the cells) ([1]; tacrolimus added in addition to azakenpaullone and ID-8, FIG. 3B): notably accelerated
